Laboratory results as given in the supplement of paper PMC10307832.

Legend:
Test in all cases: relative viability (nuclei count vs DMSO), 5 days (fraction); higher = more cells survive
[1] = compound: C1CCC(CC1)N(CCNCCC2=C3C(=C(C=C2)O)NC(=O)CO3)C(=O)CCNCCC4=CC(=C(C=C4)Cl)Cl [AZ505] + CS(=O)(=O)CCNCc1ccc(-c2ccc3ncnc(Nc4ccc(OCc5cccc(F)c5)c(Cl)c4)c3c2)o1 [Lapatinib] (partner 2 µM)
Summary of the method: (§1)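 The day after seeding in 1536-well plates, lung cancer cell lines were treated by pin tool with a single drug, or with a fixed anchor-drug dose together with five library-drug doses (not always all listed) in √10 steps. After 5 days, a combined fix-and-stain solution (final 0.05% Triton X-100, 1% formaldehyde, 1 ug/ml Hoechst) was added. Nuclei counted on 4× images gave relative viability as treated counts over vehicle counts, reported as the median of duplicate plates.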

[2] = compound: C1CCC(CC1)N(CCNCCC2=C3C(=C(C=C2)O)NC(=O)CO3)C(=O)CCNCCC4=CC(=C(C=C4)Cl)Cl [AZ505] + C[C@]1(O)C[C@@H](c2nc(-c3ccc4ccc(-c5ccccc5)nc4c3)c3c(N)nccn32)C1 [Linsitinib] (partner 1 µM)
Summary of the method: as §1

[3] = compound: Cn1c(=O)n(-c2ccc(C(C)(C)C#N)cc2)c2c3cc(-c4cnc5ccccc5c4)ccc3ncc21 [Dactolisib] + CC(=O)Nc1cccc(-n2c(=O)n(C3CC3)c(=O)c3c(Nc4ccc(I)cc4F)n(C)c(=O)c(C)c32)c1 [Trametinib] (partner 0.02 µM)
Summary of the method: as §1

[4] = compound: Cn1c(=O)n(-c2ccc(C(C)(C)C#N)cc2)c2c3cc(-c4cnc5ccccc5c4)ccc3ncc21 [Dactolisib] + O=C(CCCCCCC(=O)Nc1ccccc1)NO [Vorinostat] (partner 1 µM)
Summary of the method: as §1

## UMC-11
[1]; first compound 0.08 µM
  relative viability: 0.86
[1]; first compound 0.253 µM
  relative viability: 0.943
[1]; first compound 0.8 µM
  relative viability: 0.901
[1]; first compound 2.53 µM
  relative viability: 1.11
[1]; first compound 8 µM
  relative viability: 0.976
[2]; first compound 0.08 µM
  relative viability: 0.971
[2]; first compound 0.253 µM
  relative viability: 1.06
[2]; first compound 0.8 µM
  relative viability: 1.01
[2]; first compound 2.53 µM
  relative viability: 0.951
[2]; first compound 8 µM
  relative viability: 1.05
[3]; first compound 0.002 µM
  relative viability: 0.642
[3]; first compound 0.006325 µM
  relative viability: 0.637
[3]; first compound 0.02 µM
  relative viability: 0.578
[3]; first compound 0.06325 µM
  relative viability: 0.282
[3]; first compound 0.2 µM
  relative viability: 0.2
[4]; first compound 0.002 µM
  relative viability: 0.407
[4]; first compound 0.006325 µM
  relative viability: 0.392
[4]; first compound 0.02 µM
  relative viability: 0.245
[4]; first compound 0.06325 µM
  relative viability: 0.235
[4]; first compound 0.2 µM
  relative viability: 0.175
